Data from US20230263822A1, “MODULATION OF FACTOR 11 EXPRESSION” (Ionis Pharmaceuticals, Inc., priority 2008, published 2023).
Strand notation (5' to 3'): a small letter for the sugar, then the base; units joined by * are phosphorothioate-linked, units joined directly phosphodiester-linked; [ ] holds rarer units or linkages, { } end groups; capitals alone tell only the bases. e = 2'-O-(2-methoxyethyl) (MOE); [5mC] = 5-methylcytosine; d = 2'-deoxy (DNA)

Test: Hematology assays in cynomolgus monkeys (Example 46)
Format: in vivo
Method: Groups, each consisting of two male and two female monkeys, were injected subcutaneously with 25 mg/kg of ISIS 416850, ISIS 449709, ISIS 445522, ISIS 449710, ISIS 449707, ISIS 449711, ISIS 449708, 416858, and ISIS 445531. Antisense oligonucleotide was administered to the monkeys at 25 mg/kg three times per week for week 1 and 25 mg/kg twice per week for weeks 2 to 8. A control group, consisting of two male and two female monkeys was injected subcutaneously with PBS according to the same dosing regimen. Body weights were taken 14 days and 7 days before the start of treatment and were then measured weekly throughout the treatment period. Blood samples were collected 14 days and 5 days before the start of treatment and subsequently several times during the dosing regimen for PT and aPTT measurements, and measurement of various hematologic factors. On day 55, the monkeys were euthanized by exsanguination while under deep anesthesia, and organs harvested for further analysis.

ISIS 449708: 3-8-3, 4-8-4, 2-10-2, 3-10-3 or 4-10-4 MOE microwalk gapmer (Table 46) (antisense eA*e[5mC]*eA*dG*dT*dT*dT*d[5mC]*dT*dG*dG*e[5mC]*eA*eG)
HCT (Day 17): 44% | MCH (Day 17): 22.9 pg | MCHC (Day 17): 30.7 g/dL | MCV (Day 17): 75 fL | RBC count (Day 17): 5.9e+06 µL⁻¹ | WBC count (Day 17): 11000 µL⁻¹ | hemoglobin content (Day 17): 13.5 g/dL | monocytes (Day 17): 5.4% | neutrophils (Day 17): 61% | platelet count (Day 17): 444 ×100/μL | HCT (Day 31): 43% | MCH (Day 31): 22.7 pg | MCHC (Day 31): 29.9 g/dL | MCV (Day 31): 75 fL | RBC count (Day 31): 5.8e+06 µL⁻¹ | WBC count (Day 31): 11000 µL⁻¹ | hemoglobin content (Day 31): 13.0 g/dL | monocytes (Day 31): 5.8% | neutrophils (Day 31): 57% | platelet count (Day 31): 378 ×100/μL | HCT (Day 45): 44% | MCH (Day 45): 22.2 pg | MCHC (Day 45): 30.6 g/dL | MCV (Day 45): 74 fL | RBC count (Day 45): 6e+06 µL⁻¹ | WBC count (Day 45): 10000 µL⁻¹ | hemoglobin content (Day 45): 13.3 g/dL | monocytes (Day 45): 7.0% | neutrophils (Day 45): 61% | platelet count (Day 45): 381 ×100/μL | HCT (Day 55): 42% | MCH (Day 55): 22.5 pg | MCHC (Day 55): 31.8 g/dL | MCV (Day 55): 74 fL | RBC count (Day 55): 5.8e+06 µL⁻¹ | WBC count (Day 55): 10000 µL⁻¹ | hemoglobin content (Day 55): 13.0 g/dL | monocytes (Day 55): 6.2% | neutrophils (Day 55): 75% | platelet count (Day 55): 348 ×100/μL | HCT (Day-5): 44% | MCH (Day-5): 22.7 pg | MCHC (Day-5): 30.2 g/dL | MCV (Day-5): 75 fL | RBC count (Day-5): 5.9e+06 µL⁻¹ | WBC count (Day-5): 10000 µL⁻¹ | hemoglobin content (Day-5): 13.2 g/dL | monocytes (Day-5): 2.6% | neutrophils (Day-5): 84% | platelet count (Day-5): 517 ×100/μL | HCT (Day-14): 41% | MCH (Day-14): 22.9 pg | MCHC (Day-14): 31.4 g/dL | MCV (Day-14): 73 fL | RBC count (Day-14): 5.7e+06 µL⁻¹ | WBC count (Day-14): 14000 µL⁻¹ | hemoglobin content (Day-14): 13.0 g/dL | monocytes (Day-14): 1.7% | neutrophils (Day-14): 73% | platelet count (Day-14): 387 ×100/μL

ISIS 449709: 3-8-3, 4-8-4, 2-10-2, 3-10-3 or 4-10-4 MOE microwalk gapmer (Table 46) (antisense eG*e[5mC]*eA*e[5mC]*dA*dG*dT*dT*dT*d[5mC]*dT*dG*dG*d[5mC]*eA*eG*eG*e[5mC])
HCT (Day 17): 43% | MCH (Day 17): 22.5 pg | MCHC (Day 17): 30.7 g/dL | MCV (Day 17): 73 fL | RBC count (Day 17): 5.9e+06 µL⁻¹ | WBC count (Day 17): 11000 µL⁻¹ | hemoglobin content (Day 17): 13.2 g/dL | monocytes (Day 17): 3.0% | neutrophils (Day 17): 89% | platelet count (Day 17): 449 ×100/μL | HCT (Day 31): 42% | MCH (Day 31): 22.2 pg | MCHC (Day 31): 30.7 g/dL | MCV (Day 31): 73 fL | RBC count (Day 31): 5.9e+06 µL⁻¹ | WBC count (Day 31): 11000 µL⁻¹ | hemoglobin content (Day 31): 13.1 g/dL | monocytes (Day 31): 2.8% | neutrophils (Day 31): 81% | platelet count (Day 31): 471 ×100/μL | HCT (Day 45): 41% | MCH (Day 45): 21.0 pg | MCHC (Day 45): 31.1 g/dL | MCV (Day 45): 71 fL | RBC count (Day 45): 5.7e+06 µL⁻¹ | WBC count (Day 45): 11000 µL⁻¹ | hemoglobin content (Day 45): 12.6 g/dL | monocytes (Day 45): 3.6% | neutrophils (Day 45): 77% | platelet count (Day 45): 418 ×100/μL | HCT (Day 55): 40% | MCH (Day 55): 22.0 pg | MCHC (Day 55): 31.2 g/dL | MCV (Day 55): 71 fL | RBC count (Day 55): 5.7e+06 µL⁻¹ | WBC count (Day 55): 10000 µL⁻¹ | hemoglobin content (Day 55): 12.5 g/dL | monocytes (Day 55): 3.4% | neutrophils (Day 55): 115% | platelet count (Day 55): 441 ×100/μL | HCT (Day-5): 42% | MCH (Day-5): 22.3 pg | MCHC (Day-5): 30.3 g/dL | MCV (Day-5): 74 fL | RBC count (Day-5): 5.8e+06 µL⁻¹ | WBC count (Day-5): 10000 µL⁻¹ | hemoglobin content (Day-5): 12.8 g/dL | monocytes (Day-5): 2.0% | neutrophils (Day-5): 101% | platelet count (Day-5): 481 ×100/μL | HCT (Day-14): 41% | MCH (Day-14): 22.4 pg | MCHC (Day-14): 31.4 g/dL | MCV (Day-14): 72 fL | RBC count (Day-14): 5.8e+06 µL⁻¹ | WBC count (Day-14): 11000 µL⁻¹ | hemoglobin content (Day-14): 12.8 g/dL | monocytes (Day-14): 4.0% | neutrophils (Day-14): 73% | platelet count (Day-14): 456 ×100/μL

ISIS 449710: 3-8-3, 4-8-4, 2-10-2, 3-10-3 or 4-10-4 MOE microwalk gapmer (Table 46) (antisense e[5mC]*eA*e[5mC]*dA*dG*dT*dT*dT*d[5mC]*dT*dG*dG*d[5mC]*eA*eG*eG)
HCT (Day 17): 43% | MCH (Day 17): 23.1 pg | MCHC (Day 17): 30.7 g/dL | MCV (Day 17): 75 fL | RBC count (Day 17): 5.8e+06 µL⁻¹ | WBC count (Day 17): 12000 µL⁻¹ | hemoglobin content (Day 17): 13.4 g/dL | monocytes (Day 17): 2.5% | neutrophils (Day 17): 80% | platelet count (Day 17): 382 ×100/μL | HCT (Day 31): 44% | MCH (Day 31): 22.6 pg | MCHC (Day 31): 30.1 g/dL | MCV (Day 31): 75 fL | RBC count (Day 31): 5.8e+06 µL⁻¹ | WBC count (Day 31): 12000 µL⁻¹ | hemoglobin content (Day 31): 13.1 g/dL | monocytes (Day 31): 2.4% | neutrophils (Day 31): 94% | platelet count (Day 31): 422 ×100/μL | HCT (Day 45): 43% | MCH (Day 45): 21.8 pg | MCHC (Day 45): 30.4 g/dL | MCV (Day 45): 75 fL | RBC count (Day 45): 5.7e+06 µL⁻¹ | WBC count (Day 45): 11000 µL⁻¹ | hemoglobin content (Day 45): 13.0 g/dL | monocytes (Day 45): 3.4% | neutrophils (Day 45): 97% | platelet count (Day 45): 313 ×100/μL | HCT (Day 55): 41% | MCH (Day 55): 22.7 pg | MCHC (Day 55): 31.1 g/dL | MCV (Day 55): 73 fL | RBC count (Day 55): 5.6e+06 µL⁻¹ | WBC count (Day 55): 15000 µL⁻¹ | hemoglobin content (Day 55): 12.7 g/dL | monocytes (Day 55): 1.6% | neutrophils (Day 55): 132% | platelet count (Day 55): 360 ×100/μL | HCT (Day-5): 44% | MCH (Day-5): 22.8 pg | MCHC (Day-5): 29.7 g/dL | MCV (Day-5): 77 fL | RBC count (Day-5): 5.8e+06 µL⁻¹ | WBC count (Day-5): 11000 µL⁻¹ | hemoglobin content (Day-5): 13.2 g/dL | monocytes (Day-5): 2.0% | neutrophils (Day-5): 86% | platelet count (Day-5): 463 ×100/μL | HCT (Day-14): 41% | MCH (Day-14): 23.0 pg | MCHC (Day-14): 31.2 g/dL | MCV (Day-14): 75 fL | RBC count (Day-14): 5.6e+06 µL⁻¹ | WBC count (Day-14): 11000 µL⁻¹ | hemoglobin content (Day-14): 13.0 g/dL | monocytes (Day-14): 1.3% | neutrophils (Day-14): 93% | platelet count (Day-14): 411 ×100/μL
